This passage reports IC50 and IC90 results from ChEMBL document CHEMBL1862790, “Optimisation of fenarimol series for the treatment of Chagas disease”.

What is called IC50 is the concentration needed to halve the response being measured. As a reminder, the IC90 is the point of the concentration-response curve where the effect stands at 90%.

Data set [1] deals with Trypanosoma cruzi. Nature of the data set: microbe, parasite or virus in culture. The format is functional, organism-based, Tulahuen LacZ, Clone C4. The note with it: Trypanosoma cruzi, Tulahuen LacZ, Clone C4.
The test system of another data set is L6. Nature of the data set: DNDI: Cytotoxicity against L-6 rat myoblasts from skeletal muscle cells. Particulars: L6 rat skeletal muscle myoblast cells.
The subject of data set [2] is Trypanosoma cruzi. Nature of the data set: microbe, parasite or virus in culture. The format is functional, Tulahuen LacZ, Clone C4. The note with it: Trypanosoma cruzi, Tulahuen LacZ, Clone C4.

Regarding `OC(c1ccc(Cl)cc1)(c1ccc(Cl)cc1)c1cccnc1`, the 50% inhibitory concentration (IC50) is 90 nM in the data set on Trypanosoma cruzi [1] and 49000 nM with L6. The 90% effect level in the data set on Trypanosoma cruzi [2] (IC90) was put at 27000 nM.
In the same order, the values of `Cc1ccc(C(O)(c2ccc(Cl)cc2)c2cccnc2)cc1` (centres undefined) are 17 nM, 61200 nM and 60 nM.
On to `OC(c1ccc(Cl)cc1)(c1cccnc1)c1ccc(C(F)(F)F)cc1F` (centres undefined), for which the IC50 with Trypanosoma cruzi [1] was 21 nM; in the data set with L6 it was 57400 nM. This compound came in with an IC90 in the data set on Trypanosoma cruzi [2] of 70 nM.
For `O=S(=O)(c1ccccc1)N1CCN(C(c2ccc(Cl)cc2)c2cccnc2)CC1` (centres undefined) the same measures were 8.5 nM, 42700 nM and 39 nM.
For `OC(c1ccc(C(F)(F)F)cc1)(c1ccc(C(F)(F)F)cc1)c1cccnc1` the same measures were 14.9 nM, 50600 nM and 38 nM.
With `Fc1cc(Cl)ccc1C(c1cncnc1)N1CCN(c2ccccc2)CC1` (centres undefined), the IC50 in the data set on Trypanosoma cruzi [1] was found to be 78 nM; in the data set with L6, 62700 nM. It took 270 nM to reach the 90% level in the data set on Trypanosoma cruzi [2] (IC90).
In the same order, the values of `O=S(=O)(c1ccc(Cl)cc1)N1CCN(C(c2ccc(Cl)cc2)c2cccnc2)CC1` (centres undefined) are 24 nM, 23000 nM and 97 nM.
Regarding `CC(C)CNC(c1ccc(Cl)cc1)(c1cccnc1)c1ccccc1Cl` (centres undefined), the IC50 in the data set with Trypanosoma cruzi [1] was 606 nM; in the data set on L6 it was 59200 nM. The compound further gave an IC90 with Trypanosoma cruzi [2] of 1320 nM.
For `O=C(Oc1ccccc1)N1CCN(C(c2cccnc2)c2ccc(Cl)cc2F)CC1` (centres undefined) the same measures were 4.5 nM, 59100 nM and 12 nM.
For `CC(C)(C)C(=O)N1CCN(C(c2cccnc2)c2ccc(Cl)cc2F)CC1` (centres undefined) the same measures were 19 nM, 60300 nM and 88 nM.
In the same order, the values of `CN(C)c1ccc(C(O)(c2ccc(C(F)(F)F)cc2)c2cccnc2)cc1` (centres undefined) are 6 nM, 59100 nM and 28 nM.
With `OC(c1cccnc1)(c1ccc(Cl)cc1F)c1ccc(Cl)cc1F`, the IC50 in the data set with Trypanosoma cruzi [1] was 16 nM; in the data set on L6, 56300 nM. For the same compound, in the data set with Trypanosoma cruzi [2], the IC90 is 36 nM.
As for `Fc1cc(Cl)ccc1C(c1cccnc1)N1CCN(c2ncccn2)CC1` (centres undefined), the IC50 in the data set with Trypanosoma cruzi [1] was found to be 26 nM; in the data set on L6, 59000 nM. The IC90 in the data set on Trypanosoma cruzi [2] was 92 nM.
Take `COc1ccc(C(O)(c2ccc(Cl)cc2)c2cccnc2)cc1` (centres undefined): the IC50 is 40 nM in the data set on Trypanosoma cruzi [1] and 68100 nM in the data set with L6. Further, it took 180 nM to reach the 90% level in the data set with Trypanosoma cruzi [2] (IC90).
In the same order, the values of `COc1ccccc1N1CCN(C(c2cncnc2)c2ccc(Cl)cc2F)CC1` (centres undefined) are 65 nM, 59800 nM and 190 nM.
`OC(c1ccc(Cl)cc1)(c1ccc(Br)cc1)c1cccnc1` (centres undefined): the IC50 with Trypanosoma cruzi [1] worked out at 31 nM; with L6 it was 57000 nM. Besides, the 90% effect level with Trypanosoma cruzi [2] (IC90) was put at 79 nM.
In the same order, the values of `O=C(Nc1ccc(Cl)cc1)N1CCN(C(c2cncnc2)c2ccc(Cl)cc2F)CC1` (centres undefined) are 10 nM, 33600 nM and 30 nM.
In the same order, the values of `CC(C)Oc1ccc(C(O)(c2ccc(C(F)(F)F)cc2)c2cccnc2)cc1` (centres undefined) are 3.73 nM, 47600 nM and 7 nM.
For `O=C(c1ccccc1)N1CCN(C(c2ccc(Cl)cc2)c2cccnc2)CC1` (centres undefined) the same measures were 68 nM, 61400 nM and 160 nM.
`CC(C)Oc1ncc(C(O)(c2cccnc2)c2ccc(Cl)cc2F)cn1` (centres undefined): the results for the IC50 with Trypanosoma cruzi [1] and in the data set with L6 were 7.7 nM and 89500 nM, respectively. For the same compound, in the data set on Trypanosoma cruzi [2], the IC90 was more than 10 nM.
For `COc1ccccc1N1CCN(C(c2ccc(Cl)cc2)c2cccnc2)CC1` (centres undefined), the IC50 in the data set on Trypanosoma cruzi [1] came out at 20 nM; in the data set on L6 it was 61100 nM. Also, the IC90 in the data set on Trypanosoma cruzi [2] was determined as 42 nM.
In the same order, the values of `O=C(Nc1ccccc1)N1CCN(C(c2ccc(Cl)cc2)c2cccnc2)CC1` (centres undefined) are 9 nM, 67200 nM and 34 nM.
`CC(C)(C)OC(=O)N1CCN(C(c2cccnc2)c2ccc(Cl)cc2F)CC1` (centres undefined): the figures for the IC50 in the data set on Trypanosoma cruzi [1] and in the data set with L6 were 20 nM and 43500 nM, respectively. The compound further came in with an IC90 with Trypanosoma cruzi [2] of 94 nM.
As to `CC(C)C(=O)Nc1ncc(C(O)(c2ccc(Cl)cc2)c2cccnc2)s1` (centres undefined), the IC50 amounted to 17 nM with Trypanosoma cruzi [1] and 56600 nM in the data set with L6. This compound also came in with an IC90 in the data set on Trypanosoma cruzi [2] of 88 nM.
On to `OC(c1ccc(Cl)cc1)(c1ccc(Br)cc1)c1cncnc1` (centres undefined), for which the concentration for half-maximal inhibition (IC50) in the data set with Trypanosoma cruzi [1] worked out at 144 nM; in the data set with L6 it was 58700 nM. Moreover, the IC90 with Trypanosoma cruzi [2] stood at 460 nM.
In the same order, the values of `OC(c1ccc(Cl)cc1)(c1cccnc1)c1cccc(Br)c1` (centres undefined) are 54 nM, 54100 nM and 80 nM.
For `OC(c1ccc(Cl)cc1)(c1ccc(C(F)(F)F)cc1)c1cccnc1` (centres undefined) the same measures were 8.2 nM, 56400 nM and 30 nM.
As to `O=C(Nc1ccccc1)N1CCN(C(c2cccnc2)c2ccc(Cl)cc2F)CC1` (centres undefined), the results for the IC50 with Trypanosoma cruzi [1] and in the data set with L6 were 6.2 nM and 45100 nM, respectively. The same compound had an IC90 in the data set on Trypanosoma cruzi [2] of 24 nM.
